For assay [1], the system named is THX cells. Kind of assay: Photochemically induced GFP expression after pEGFP-N1-pLys transfection (flow cytometry). The assay is classed as cell-based. The note with it: for change in GFP expression with photosensitiser and light: pEGFP-N1-pLys complex plus photosensitiser and light, FIG. 5a, 5b; for fraction of the cells positive for GFP: AlPcS2a plus pEGFP-N1-pLys complex. The method, then:
Plasmid-pLys complexes (charge ratio, 1.7) were prepared by gently mixing 5 μg plasmid (pEGFP-N1; Clontech Laboratories, Inc., Palo Alto, Calif.) in 75 μl of HBS with 5.3 μg pLys (MW 20700; Sigma, St. Louis, Mo.) in 75 μl of HBS. The solutions were incubated for 30 min at room temperature, diluted with culture medium and added to the cells.
THX cells were incubated with 20 μg/ml AlPcS2a for 18 hours at 37° C., washed and incubated in sensitizer-free medium for 3 hours before incubation with plasmid-pLys complexes for 2 hours. The pEGFP-N1/pLys treated THX cells were washed once and incubated for 2 hours in culture medium without additions before exposure to light. The cells were incubated at 37° C. for 2 days, subcultured and further incubated for an additional 5 days before analysis of GFP expression by flow cytometry.
The cells were trypsinised, centrifuged, resuspended in 400 μl of culture medium and filtered through a 50 μm mesh nylon filter. The cells were then analysed in a FACStar plus flow cytometer (Becton Dickinson). Green Fluorescent Protein (GFP) was measured through a 510-530 nm filter after excitation with an argon laser (200 mW) tuned on 488 nm. AlPcS2a was measured through a 650 nm longpass filter after excitation with a krypton laser (50 mW) tuned on 351-356 nm. Cell doublets were discriminated from single cells by gating on the pulse width of the GFP fluorescence signal. The data were analysed with PC Lysys II software (Becton Dickinson).
The expression of GFP was analysed by flow cytometry (FIGS. 5a and b) and fluorescence microscopy (data not shown). […] The fraction of the cells that was positive for this reporter molecule increased from 1% at no light treatment to 50% after a 5-min light exposure. […] Consequently, in a light-directed manner, PCI can substantially increase the efficiency of transfection of a functional gene to THX cells.

The test system of assay [2] is NHIK 3025 cells. Kind of assay: PCI-induced release of endocytosed HRP into the cytosol. The assay is classed as cell-based, human. The note with it: 3.2 μg/ml TPPS2a and 1 mg/ml HRP for 18 h, then light; FIG. 4. The method, then: In this experiment NHIK 3025 cells (carcinoma cells in situ from human cervix) were treated with the photosensitising agent TPPS2a (3.2 μg/ml) and 1 mg/ml HRP for 18 hours. HRP activity was measured according to the procedure described in Steinman et al., J. Cell Biol., 68: 665-687, 1976. Cytosol was separated from cytosol-free cell corpses by electropermeabilisation and a density centrifugation technique (Berg et al., Int. J. Cancer 59: 814-822, 1994).

For assay [3], the system named is BL2-G-E6 cells. Kind of assay: Photochemically induced relocalisation of fluorescein-labelled ras peptide (fluorescence microscopy). The assay is classed as cell-based, mouse. The note with it: peptide plus AlPcS2a; after a 4-min exposure to red light. The method, then:
Two different light sources were used for treatment of the cells, both consisting of a bank of 4 fluorescent tubes.
The cells were analysed by fluorescence microscopy as described in Berg. K., et al., Biochem. Biophys. Acta., 1370: 317-324, 1998. For analysis of fluorescein-labelled molecules the microscope was equipped with a 450-490 nm excitation filter, a 510 nm dichroic beam splitter and a 510-540 nm band pass emission filter.
BL2-G-E6 cells were incubated with 30 μg/ml of the fluorescein-labelled p21^ras-derived peptide for 18 hours followed by 20 μg/ml AlPcS2a for 18 hours and 1 hour in drug-free medium before exposure to red light.
To evaluate PCI for cytosolic delivery of cancer-specific peptides, a fluorescein-labelled p21^ras peptide encompassing residues 5-21 and containing a Val^12 mutation (G12V) was used (Gjertsen, M. K., et al., Int. J. Cancer, 72: 784-790, 1997). […] Similar effects were not observed in cells exposed to the fluorescein-labelled ras peptide and light only (data not shown).

Turning to `Oc1cccc(-c2c3nc(c(-c4cccc(O)c4)c4ccc([nH]4)c(-c4cccc(O)c4)c4nc(c(-c5cccc(O)c5)c5ccc2[nH]5)C=C4)C=C3)c1` [3-THPP], in assay [1], the “change in GFP expression with photosensitiser and light” value is reported as “only a minor increase”.
Horseradish Peroxidase [HRP]: in assay [2], the “fraction of endocytosed HRP released into the cytosol” value is above 60%.
Turning to “aluminum phthalocyanine with 2 sulfonate groups on adjacent phenyl rings [AlPcS2a]”, the “localisation after light exposure” value in assay [3] is on record as “located diffusely in the cytoplasm”. In addition, the “fraction of the cells positive for GFP” value is recorded as 50% in assay [1] (after a 5-min light exposure) and 1% in assay [1] (no light treatment). Besides, the “change in GFP expression with photosensitiser and light” value in assay [1] is reported as “strong increase”.
